Bounds are passed on as bounds.

In patent publication US8349851B2, “JAK kinase modulating compounds and methods of use thereof” (Ambit Biosciences Corp., priority 2009, dated 2013) one finds IC50 and Kd data, which are given here for 19 molecules.

In test [1] the test system is csTF-1 cells (GM-CSFR/JAK2/STAT5 pathway). In words: csTF-1 cell-based reporter assay. Details: species or system human. As to conditions: Homo sapiens; GM-CSF at 2 ng/mL, 4 hours; read-out: Cell Assay: CS0017: CS TF-1 reporter assay: IC50. As to the method:
csTF-1 Cell-based Reporter Assay
csTF-1 cells are derived from the human erythroleukemia cell line that is growth dependent on GM-CSF and has an intact GM-CSFR/JAK2/STAT5 pathway. The cell line contains stably integrated beta-lactamase reporter gene under the control of the […] (irf 1) response element recognized by the activated transcription factor STATS. csTF-1 cells (Invitrogen K1219) were washed with assay media (97% OPTIMEM/0.5% dialyzed FBS/0.1 mM NEAA/1 mM Na pyr/P/S) and seeded in the same media at 5×10^5 cell/mL in T150 flask. After 16 hour incubation, cells were seeded at 2×10^5 cell/well in 50 μl volume, into Costar, clear bottom, 96-well assay plates. Serial dilutions of compounds were added to the plates with final DMSO concentration at 0.5% and GM-CSF at 2 ng/mL and the plates were then incubated at […] and 5% CO2 for 4 hours. The plates were brought to room temperature before adding Substrate Mixture according to manufacturer's protocol (Invitrogen, Catalog #K1085). The assay plates containing the substrate mixture were incubated in the dark at room temperature for 2 hours. Blue and green fluorescence was measured with excitation at 409 nm and emission at 460 nm (for blue) and excitation at 409 nm and emission at 530 nm (for green) using Spectra Max Gemini EM.

The target of another test is T1, JAK3 (Homo sapiens, UniProt P52333).
T1 construct: made in house
In words: Competition binding assay, JAK3. As to conditions: read-out: Binding Assay: JAK3 (active_KD, ENZ). An excerpt: (§1) Competition Binding Assay to Determine Binding Constants (Kd) of the Compounds Against JAK Kinases
(§2) Competition binding assays used herein were developed, validated and performed as described in Fabian et al., Nature Biotechnology 2005, 23,329-336. Kinases were produced as fusions to T7 phage (See, Fabian et al. or WO04/015142) or alternatively, the kinases were expressed in HEK-293 cells and subsequently tagged with DNA for PCR detection (See, WO08/005310). For the binding assays, streptavidin-coated magnetic beads were treated with biotinylated affinity ligands for 30 min at rt to generate affinity resins. The liganded beads were blocked with excess biotin and washed with blocking buffer (SeaBlock (Pierce), 1% BSA, 0.05% Tween 20, 1 mM DTT) to remove unbound ligand and to reduce non-specific binding. […] Test compounds were prepared as 100× stocks in DMSO and rapidly diluted into the aqueous environment. DMSO was added to control assays lacking a test compound. Primary screen interactions were performed in polypropylene 384-well plates in a final volume of 34 μL, while Kd determinations were performed in polystyrene 96-well plates in a final volume of 135 μL. […] The kinase concentration in the eluates was measured by quantitative PCR. Each kinase was tested individually against each compound. Kds were determined using eleven serial threefold dilutions. A selectivity score, which is a quantitative measure of selectivity of a compound against a panel of enzymes, may be calculated for a compound by dividing the number of enzymes for which a compound meets a set criteria, (for example, a binding constant of 100 nM or less), by the total number of enzymes tested.

A further test addresses T2, AuroraB (Homo sapiens, UniProt Q96GD4).
T2 construct: made in house
Nature of the test: Competition binding assay, Aurora B.
Description: Methods for determining binding constant against Aurora B kinase are known to one of skill in the art. Exemplary methods are described in U.S. provisional application No. 61/294,413, and Fabian et al., Nature Biotechnology 2005, 23,329-336.
as §2

In another test the target is T3, JAK2 (Homo sapiens, UniProt O60674).
T3 construct: made in house
Nature of the test: Competition binding assay, JAK2. To be noted: read-out: Binding Assay: JAK2 (active_KD).
Description: as §1, §2

T1 sequence (P52333 822-1111 limits assumed): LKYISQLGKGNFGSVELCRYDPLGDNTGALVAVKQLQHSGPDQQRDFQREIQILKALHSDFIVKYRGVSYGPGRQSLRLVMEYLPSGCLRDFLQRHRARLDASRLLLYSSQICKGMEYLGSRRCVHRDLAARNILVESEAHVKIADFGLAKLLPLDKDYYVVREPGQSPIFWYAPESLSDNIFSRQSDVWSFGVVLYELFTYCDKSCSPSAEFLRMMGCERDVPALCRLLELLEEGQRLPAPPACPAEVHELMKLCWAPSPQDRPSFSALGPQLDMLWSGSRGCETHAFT
T3 sequence (O60674 849-1124 limits assumed): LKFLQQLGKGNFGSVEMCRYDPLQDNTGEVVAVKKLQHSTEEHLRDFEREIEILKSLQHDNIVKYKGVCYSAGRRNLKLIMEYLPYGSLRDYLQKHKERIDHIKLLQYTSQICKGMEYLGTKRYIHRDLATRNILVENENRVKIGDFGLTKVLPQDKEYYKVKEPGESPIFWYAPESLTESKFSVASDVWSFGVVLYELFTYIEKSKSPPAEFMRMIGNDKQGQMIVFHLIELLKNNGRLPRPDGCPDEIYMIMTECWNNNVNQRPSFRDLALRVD
T2 sequence (Q96GD4 whole entry): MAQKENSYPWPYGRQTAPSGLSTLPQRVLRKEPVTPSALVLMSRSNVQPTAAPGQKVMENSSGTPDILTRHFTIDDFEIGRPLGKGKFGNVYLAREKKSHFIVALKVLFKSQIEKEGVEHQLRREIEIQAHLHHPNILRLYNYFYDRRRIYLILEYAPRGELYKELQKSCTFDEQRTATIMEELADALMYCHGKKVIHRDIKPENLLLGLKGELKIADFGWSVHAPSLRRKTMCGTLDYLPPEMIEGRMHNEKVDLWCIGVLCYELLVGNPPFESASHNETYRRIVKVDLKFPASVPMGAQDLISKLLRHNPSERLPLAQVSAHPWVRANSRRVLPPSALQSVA

Take `Cc1cc(Nc2nc(C(O)c3ccc(F)cc3)nc3cc(OCCCO)ccc23)n[nH]1` (racemic) [Example 40, (R,S)-3-(2-((4-fluorophenyl)(hydroxy)methyl)-4-(5-methyl-1H-pyrazol-3-ylamino)quinazolin-7-yloxy)propan-1-ol]: the half-maximal inhibitory concentration (IC50) in test [1] is not above 100 nM. In addition, the Kd was not above 10 nM on JAK3, more than 200 nM at AuroraB and not above 1 nM at JAK2.
Taken in the same sequence, the figures for `COCCOc1ccc2c(Nc3cc(C)[nH]n3)nc(C(O)c3ccc(F)cc3)nc2c1` (racemic) [Example 42, (R,S)-(4-fluorophenyl)(7-(2-methoxyethoxy)-4-(5-methyl-1H-pyrazol-3-ylamino)quinazolin-2-yl)methanol] were not above 100 nM, not above 10 nM, more than 200 nM and not above 1 nM.
Regarding `Cc1cc(Nc2nc(C(O)c3ccc(F)cc3)nc3cc(OCC(=O)OC(C)(C)C)ccc23)n[nH]1` (racemic) [Example 43, (R,S)-tert-butyl 2-(2-((4-fluorophenyl)(hydroxy)methyl)-4-(5-methyl-1H-pyrazol-3-ylamino)quinazolin-7-yloxy)acetate], the IC50 in test [1] is 100 to 500 nM. For the same molecule, the Kd was 10 to 100 nM on JAK3, more than 200 nM on AuroraB and not above 1 nM on JAK2.
For `Cc1cc(Nc2nc(C(O)c3ccc(F)cc3)nc3cc(OCC(=O)O)ccc23)n[nH]1` (racemic) [Example 44, (R,S)-2-(2-((4-fluorophenyl)(hydroxy)methyl)-4-(5-methyl-1H-pyrazol-3-ylamino)quinazolin-7-yloxy)acetic acid], in that order: more than 500 nM, not above 10 nM, more than 200 nM and not above 1 nM.
With `COC(=O)NC(c1ccc(F)cc1)c1nc(Nc2cc(C)[nH]n2)c2ccccc2n1` (racemic) [Example 45, (R,S)-methyl (4-fluorophenyl)(4-(5-methyl-4H-pyrazol-3-ylamino)quinazolin-2-yl) methylcarbamate], the IC50 in test [1] was in the range of 100 to 500 nM. The results for the Kd on JAK3, at AuroraB and on JAK2 were 10 to 100 nM, more than 200 nM and not above 1 nM, respectively.
Taken in the same sequence, the figures for `Cc1cc(Nc2nc(C(O)c3ccc(F)cc3)nc3c(C)cccc23)n[nH]1` (racemic) [Example 46, (R,S)-(4-fluorophenyl)(8-methyl-4-(5-methyl-1H-pyrazol-3-ylamino)quinazolin-2-yl)methanol] were 100 to 500 nM, 10 to 100 nM, more than 200 nM and not above 1 nM.
Taken in the same sequence, the figures for `Cc1cc(Nc2nc(C(O)c3ccc(F)cc3)nc3cc(F)ccc23)n[nH]1` (racemic) [Example 47, (R,S)-(7-fluoro-4-(5-methyl-1H-pyrazol-3-ylamino)quinazolin-2-yl)(4-fluorophenyl)methanol] were 100 to 500 nM, 10 to 100 nM, more than 200 nM and not above 1 nM.
For `Cc1cc(Nc2nc(C(O)c3ccc(F)cc3)nc3cc(Cl)ccc23)n[nH]1` (racemic) [Example 52, (R,S) (7-chloro-4-(5-methyl-1H-pyrazol-3-ylamino)quinazolin-2-yl)(4-fluorophenyl)methanol], in that order: not above 100 nM, 10 to 100 nM, more than 200 nM and 1 to 10 nM.
`Cc1cc(Nc2nc(C(=O)c3cccc(F)c3)nc3ccccc23)n[nH]1` [Example 1, (3-fluorophenyl)(4-(5-methyl-1H-pyrazol-3-ylamino)quinazolin-2-yl)methanone]: in test [1], the half-maximal inhibitory concentration (IC50) lay within 100 to 500 nM. Also, the Kd on JAK3 is 10 to 100 nM; at AuroraB it was more than 200 nM; on JAK2 it was 1 to 10 nM.
Taken in the same sequence, the figures for `O=C(c1cccc(F)c1)c1nc(Nc2cc[nH]n2)c2ccccc2n1` [Example 2, (4-(1H-pyrazol-3-ylamino)quinazolin-2-yl)(3-fluorophenyl)methanone] were more than 500 nM, more than 100 nM, more than 200 nM and more than 10 nM.
Regarding `Cc1cc(Nc2nc(C(=O)c3ccc(F)cc3)nc3ccccc23)n[nH]1` [Example 3, (4-fluorophenyl)(4-(5-methyl-1H-pyrazol-3-ylamino)quinazolin-2-yl)methanone], in test [1], the IC50 was not above 100 nM. In addition, the Kd is 10 to 100 nM on JAK3, more than 200 nM at AuroraB and not above 1 nM at JAK2.
For `O=C(c1ccc(F)cc1)c1nc(Nc2cc[nH]n2)c2ccccc2n1` [Example 4, (4-(1H-pyrazol-3-ylamino)quinazolin-2-yl)(4-fluorophenyl)methanone], in that order: not above 100 nM, 10 to 100 nM, more than 200 nM and not above 1 nM.
As for `COc1ccccc1C(=O)c1nc(Nc2cc[nH]n2)c2ccccc2n1` [Example 5, (4-(1H-pyrazol-3-ylamino)quinazolin-2-yl)(2-methoxyphenyl)methanone], in test [1], the IC50 was 100 to 500 nM. The Kd on JAK3 is more than 100 nM; on AuroraB, more than 200 nM; at JAK2, 1 to 10 nM.
For `Cc1cc(Nc2nc(C(F)(F)c3ccc(F)cc3)nc3ccccc23)n[nH]1` [Example 8, 2-(difluoro(4-fluorophenyl)methyl)-N-(5-methyl-1H-pyrazol-3-yl)quinazolin-4-amine], in that order: not above 100 nM, not above 10 nM, more than 200 nM and not above 1 nM.
Taken in the same sequence, the figures for `Fc1ccc(C(F)(F)c2nc(Nc3cc[nH]n3)c3ccccc3n2)cc1` [Example 9, 2-(difluoro(4-fluorophenyl)methyl)-N-(1H-pyrazol-3-yl)quinazolin-4-amine] were not above 100 nM, 10 to 100 nM, more than 200 nM and not above 1 nM.
For `Fc1ccc(C(F)(F)c2nc(Nc3cc(C4CC4)[nH]n3)c3ccccc3n2)cc1` [Example 10, N-(5-cyclopropyl-1H-pyrazol-3-yl)-2-(difluoro(4-fluorophenyl)methyl)quinazolin-4-amine], in that order: not above 100 nM, not above 10 nM, more than 200 nM and 1 to 10 nM.
For the molecule `Cc1cc(Nc2nc(C(=O)c3ccc(F)cc3)nc3cc(C(F)(F)F)ccc23)n[nH]1` [Example 17, (4-fluorophenyl)(4-(5-methyl-1H-pyrazol-3-ylamino)-7-(trifluoromethyl)quinazolin-2-yl)methanone], the IC50 in test [1] lay in the range of 100 to 500 nM. Besides, the Kd on JAK3 is more than 100 nM; on AuroraB, more than 200 nM; at JAK2 it was more than 10 nM.
For `Cc1cc(Nc2nc(C(=O)c3ccc(F)cc3)nc3cc(F)ccc23)n[nH]1` [Example 19, (7-fluoro-4-(5-methyl-1H-pyrazol-3-ylamino)quinazolin-2-yl)(4-fluorophenyl)methanone], in that order: not above 100 nM, 10 to 100 nM, more than 200 nM and 1 to 10 nM.
In the case of `Cc1cc(Nc2nc(C(F)(F)c3ccc(F)cc3)nc3cc(F)ccc23)n[nH]1` [Example 20, 2-(difluoro(4-fluorophenyl)methyl)-7-fluoro-N-(5-methyl-1H-pyrazol-3-yl)quinazolin-4-amine], the IC50 in test [1] was not above 100 nM. Further, the values for the Kd at JAK3, on AuroraB and at JAK2 were 10 to 100 nM, more than 200 nM and not above 1 nM, respectively.
